Measured values taken from patent publication US7973069B2 (PTC Therapeutics, Inc., priority 2004, dated 2011).
“And” between values parts separate entries of the source, which are not always exact repeats. Identical values can stand only once.

Test system: HCV replicon
Format: cell-based

SMILES	IC50
CCCS(=O)(=O)Nc1ccc(-c2c(C#N)c3cc(OC)ccc3n2C2CCC2)cc1 [Compound 1181]	0.5 to 2 µM
COc1ccc2c(c1)c(C#N)c(-c1ccc(NS(=O)(=O)C3CC3)cc1)n2C1CCC1 [Compound 1182]	< 0.5 µM and > 2 µM
CCn1c(-c2ccc(NC(=O)C3CC3)cc2)c(C#N)c2ccc(OCCn3cccn3)cc21 [Compound 1184]	0.5 to 2 µM
CCCNC(=O)Nc1ccc(-c2c(C#N)c3ccc(OCc4cccnc4)cc3n2CC)cc1 [Compound 1185]	< 0.5 µM
N#Cc1c(-c2ccc(NC(=O)OC3CCCC3)cc2)n(C2CCC2)c2cc(OC(F)F)ccc12 [Compound 1186]	0.5 to 2 µM
CCCNC(=O)Nc1ccc(-c2c(C#N)c3ccc(OC(F)F)cc3n2C2CCC2)cc1 [Compound 1187]	0.5 to 2 µM
CCCS(=O)(=O)Nc1ccc(-c2c(C#N)c3ccc(OC(F)F)cc3n2C2CCCC2)cc1 [Compound 1188]	0.5 to 2 µM
N#Cc1c(-c2ccc(NS(=O)(=O)C3CC3)cc2)n(C2CCCC2)c2cc(OC(F)F)ccc12 [Compound 1189]	< 0.5 µM
N#Cc1c(-c2ccc(NC(=O)NC3CCCC3)cc2)n(C2CCC2)c2cc(OC(F)F)ccc12 [Compound 1190]	0.5 to 2 µM
CCOc1ccc2c(C#N)c(-c3ccc(NC(=O)NC4CC4)cc3)n(C3CCC3)c2c1 [Compound 1191]	0.5 to 2 µM
CCOc1ccc2c(C#N)c(-c3ccc(NC(=O)OCCN4CCOCC4)cc3)n(C3CCC3)c2c1 [Compound 1192]	0.5 to 2 µM
CCOC(=O)Nc1ccc(-c2c(C#N)c3cc(OCC)ccc3n2C2CCC2)cc1 [Compound 1193]	< 0.5 µM
CCOc1ccc2c(c1)c(C#N)c(-c1ccc(NC(=O)OC(C)C)cc1)n2C1CCC1 [Compound 1195]	< 0.5 µM
CCCCOC(=O)Nc1ccc(-c2c(C#N)c3cc(OCC)ccc3n2C2CCC2)cc1 [Compound 1197]	0.5 to 2 µM and < 0.5 µM
CCCCOC(=O)Nc1ccc(-c2c(C#N)c3cc(OCC)ccc3n2C2CCC2)cc1 [Compound 1198]	< 0.5 µM
CCOc1ccc2c(c1)c(C#N)c(-c1ccc(NC(=O)OC3CCCC3)cc1)n2C1CCC1 [Compound 1199]	< 0.5 µM
CCOc1ccc2c(c1)c(C#N)c(-c1ccc(NC(=O)OCC(C)(C)C)cc1)n2C1CCC1 [Compound 1200]	< 0.5 µM
CCCOc1ccc2c(C#N)c(-c3ccc(NC(=O)OCC)cc3)n(C(C)C)c2c1 [Compound 1202]	< 0.5 µM
CCCOC(=O)Nc1ccc(-c2c(C#N)c3ccc(OCCC)cc3n2C(C)C)cc1 [Compound 1203]	< 0.5 µM
CCCOc1ccc2c(C#N)c(-c3ccc(NC(=O)OC(C)C)cc3)n(C(C)C)c2c1 [Compound 1204]	< 0.5 µM
CCCOc1ccc2c(C#N)c(-c3ccc(NC(=O)OC4CCCC4)cc3)n(C(C)C)c2c1 [Compound 1205]	< 0.5 µM
CCCOc1ccc2c(C#N)c(-c3ccc(NC(=O)OCC(C)C)cc3)n(C(C)C)c2c1 [Compound 1206]	< 0.5 µM
CCCOc1ccc2c(C#N)c(-c3ccc(NC(=O)OCC(C)(C)C)cc3)n(C(C)C)c2c1 [Compound 1207]	< 0.5 µM
CCOc1ccc2c(C#N)c(-c3ccc(NC(=O)OCC4(C)CC4)cc3)n(C3CCC3)c2c1 [Compound 1208]	< 0.5 µM
CCOc1ccc2c(C#N)c(-c3ccc(NC(=O)OC4(C)CCCC4)cc3)n(C3CCC3)c2c1 [Compound 1209]	< 0.5 µM
CCOc1ccc2c(C#N)c(-c3ccc(NC(=O)OCCCN4CCOCC4)cc3)n(C3CCC3)c2c1 [Compound 1210]	< 0.5 µM

SMILES	IC50
CCOc1ccc2c(C#N)c(-c3ccc(NC(=O)OC4CCCC4)cc3)n(C3CCCC3)c2c1 [Compound 1211]	< 0.5 µM
CC(C)NC(=O)Nc1ccc(-c2c(C#N)c3ccc(OCc4cccnc4)cc3n2C2CCC2)cc1 [Compound 1212]	< 0.5 µM
CCOc1ccc2c(C#N)c(-c3ccc(NC(=O)NC4CCCC4)cc3)n(C3CCCC3)c2c1 [Compound 1214]	< 0.5 µM
CCOc1ccc2c(C#N)c(-c3ccc(NC(=O)OC4CCOC4)cc3)n(C3CCC3)c2c1 (centres unmarked) [Compound 1215]	< 0.5 µM
CCOc1ccc2c(C#N)c(-c3ccc(NC(=O)OC4CCOCC4)cc3)n(C3CCC3)c2c1 [Compound 1216]	0.5 to 2 µM
CC(C)OC(=O)Nc1ccc(-c2c(C#N)c3ccc(OCc4cccnc4)cc3n2C2CCC2)cc1 [Compound 1218]	< 0.5 µM
N#Cc1c(-c2ccc(NC(=O)OC3CCCC3)cc2)n(C2CCC2)c2cc(OCc3cccnc3)ccc12 [Compound 1219]	< 0.5 µM
CC(C)OC(=O)Nc1ccc(-c2c(C#N)c3ccc(OCc4ccccn4)cc3n2C2CCC2)cc1 [Compound 1220]	< 0.5 µM
CCOc1ccc2c(C#N)c(-c3ccc(NC(=O)NC(C)C)cc3)n(C3CCCC3)c2c1 [Compound 1221]	< 0.5 µM
CCOc1ccc2c(C#N)c(-c3ccc(NC(=O)OC4CCCC4)cc3)n(C(C)CC)c2c1 (centres unmarked) [Compound 1222]	0.5 to 2 µM
CCOc1ccc2c(c1)c(C#N)c(-c1ccc(NC(=O)NC(C)C)cc1)n2C1CCC1 [Compound 1223]	< 0.5 µM
CCOc1ccc2c(c1)c(C#N)c(-c1ccc(NC(=O)NC(C)C)cc1)n2C1CCC1 [Compound 1224]	0.5 to 2 µM
CCCCNC(=O)Nc1ccc(-c2c(C#N)c3cc(OCC)ccc3n2C2CCC2)cc1 [Compound 1225]	0.5 to 2 µM and < 0.5 µM
CCOc1ccc2c(c1)c(C#N)c(-c1ccc(NC(=O)NC3CCCC3)cc1)n2C1CCC1 [Compound 1226]	< 0.5 µM
CCOc1ccc2c(c1)c(C#N)c(-c1ccc(NC(=O)NCCc3ccccc3)cc1)n2C1CCC1 [Compound 1227]	< 0.5 µM
CCOc1ccc2c(c1)c(C#N)c(-c1ccc(NS(=O)(=O)CC)cc1)n2C1CCC1 [Compound 1228]	0.5 to 2 µM
CCCS(=O)(=O)Nc1ccc(-c2c(C#N)c3cc(OCC)ccc3n2C2CCC2)cc1 [Compound 1229]	0.5 to 2 µM
COc1ccc2c(c1)c(C#N)c(-c1ccc(NS(=O)(=O)C(C)C)cc1)n2C1CCC1 [Compound 1231]	0.5 to 2 µM
COc1ccc2c(c1)c(C#N)c(-c1ccc(NC(=O)OC(C)C)cc1)n2C1CCC1 [Compound 1232]	< 0.5 µM and 0.5 to 2 µM
COc1ccc2c(c1)c(C#N)c(-c1ccc(NC(=O)OCC(C)(C)C)cc1)n2C1CCC1 [Compound 1233]	< 0.5 µM
CCCS(=O)(=O)Nc1ccc(-c2c(C#N)c3ccc(OC)cc3n2C2CC2)cc1 [Compound 1235]	0.5 to 2 µM
CCOc1ccc2c(C#N)c(-c3ccc(NC(=O)OC(C)C)cc3)n(C3CC3)c2c1 [Compound 1236]	< 0.5 µM
CCOc1ccc2c(C#N)c(-c3ccc(N(CC)C(=O)OC(C)C)cc3)n(C3CC3)c2c1 [Compound 1237]	0.5 to 2 µM
CCOc1ccc2c(C#N)c(-c3ccc(NC(=O)OCC4CCCO4)cc3)n(C3CCC3)c2c1 (centres unmarked) [Compound 1240]	< 0.5 µM
CCCOc1ccc2c(C#N)c(-c3ccc(NC(=O)OCC4CC4)cc3)n(C(C)C)c2c1 [Compound 1241]	< 0.5 µM
CCCOc1ccc2c(C#N)c(-c3ccc(NC(=O)OC(C)C4CC4)cc3)n(C(C)C)c2c1 (centres unmarked) [Compound 1242]	< 0.5 µM

SMILES	IC50
CCCOc1ccc2c(C#N)c(-c3ccc(NC(=O)OCC4(C)CC4)cc3)n(C(C)C)c2c1 [Compound 1243]	< 0.5 µM
CCCOc1ccc2c(C#N)c(-c3ccc(NC(=O)OC(C)C4CC4)cc3)n(C(C)C)c2c1 (centres unmarked) [Compound 1244]	< 0.5 µM
CCOc1ccc2c(C#N)c(-c3ccc(N)cc3)n(C3CC3)c2c1 [Compound 1245]	0.5 to 2 µM
CCCOc1ccc2c(C#N)c(-c3ccc(NC(=O)OC(C)CC)cc3)n(C(C)C)c2c1 (centres unmarked) [Compound 1246]	< 0.5 µM
CCCOc1ccc2c(C#N)c(-c3ccc(NC(=O)OC4CCC4)cc3)n(C(C)C)c2c1 [Compound 1247]	< 0.5 µM
CCCOc1ccc2c(C#N)c(-c3ccc(NC(=O)OC4CCOCC4)cc3)n(C(C)C)c2c1 [Compound 1248]	< 0.5 µM
CCCOc1ccc2c(C#N)c(-c3ccc(NC(=O)OC4CCOC4)cc3)n(C(C)C)c2c1 (centres unmarked) [Compound 1249]	< 0.5 µM
CCOCCOC(=O)Nc1ccc(-c2c(C#N)c3ccc(OCC)cc3n2C2CCC2)cc1 [Compound 1250]	< 0.5 µM
CCCOC(=O)N(CC)c1ccc(-c2c(C#N)c3ccc(OCC)cc3n2C2CCC2)cc1 [Compound 1252]	0.5 to 2 µM
CC(C)OC(=O)Nc1ccc(-c2c(C#N)c3ccc(OCCCN4CCOCC4)cc3n2C2CCC2)cc1 [Compound 1253]	0.5 to 2 µM
CC(C)OC(=O)Nc1ccc(-c2c(C#N)c3ccc(OCCCn4ccnc4)cc3n2C2CCC2)cc1 [Compound 1254]	< 0.5 µM
CCCn1c(-c2ccc(NC(=O)NCCc3ccccc3)cc2)c(C#N)c2ccc(OCC)cc21 [Compound 1256]	< 0.5 µM
N#Cc1c(-c2ccc(NC(=O)OCC3CCC3)cc2)n(C2CCC2)c2cc(OCCCCN3CCCC3)ccc12 [Compound 1257]	< 0.5 µM
N#Cc1c(-c2ccc(NC(=O)OC3CCC3)cc2)n(C2CCC2)c2cc(OCCCCN3CCCC3)ccc12 [Compound 1258]	< 0.5 µM
N#Cc1c(-c2ccc(NC(=O)NC3CCC3)cc2)n(C2CCC2)c2cc(OCCCCN3CCCC3)ccc12 [Compound 1259]	< 0.5 µM
CCN(CC)CCCOc1ccc2c(C#N)c(-c3ccc(NC(=O)OC(C)C)cc3)n(C3CCC3)c2c1 [Compound 1260]	< 0.5 µM
CC(C)OC(=O)Nc1ccc(-c2c(C#N)c3ccc(OCCCN4CCN(C)CC4)cc3n2C2CCC2)cc1 [Compound 1261]	< 0.5 µM
CCOc1ccc2c(C#N)c(-c3ccc(NC(=O)OCc4ccccn4)cc3)n(C3CCC3)c2c1 [Compound 1264]	< 0.5 µM
CCOc1ccc2c(C#N)c(-c3ccc(NC(=O)OC(C)CC)cc3)n(C3CCC3)c2c1 (centres unmarked) [Compound 1265]	< 0.5 µM
CCC(C)NC(=O)Nc1ccc(-c2c(C#N)c3ccc(OC(F)F)cc3n2CC2CC2)cc1 (centres unmarked) [Compound 1266]	0.5 to 2 µM
CC(OC(=O)Nc1ccc(-c2c(C#N)c3ccc(OC(F)F)cc3n2CC2CC2)cc1)C1CC1 (centres unmarked) [Compound 1267]	0.5 to 2 µM
CCC(C)OC(=O)Nc1ccc(-c2c(C#N)c3ccc(OC(F)F)cc3n2CC2CC2)cc1 (centres unmarked) [Compound 1268]	0.5 to 2 µM
CC(C)OC(=O)Nc1ccc(-c2c(C#N)c3ccc(OCCN(C)C)cc3n2C2CCC2)cc1 [Compound 1269]	< 0.5 µM
CCN(C)CCOc1ccc2c(C#N)c(-c3ccc(NC(=O)OC(C)C)cc3)n(C3CCC3)c2c1 [Compound 1270]	< 0.5 µM
CC(C)OC(=O)Nc1ccc(-c2c(C#N)c3ccc(OCCN4CCOCC4)cc3n2C2CCC2)cc1 [Compound 1271]	< 0.5 µM
